The record followed here is PubChem BioAssay (NCI).

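Values below derive from 48-hour exposures of cells grown in 96-well plates, with endpoints linearly interpolated between the two concentrations bracketing the appropriate inhibition level. TGI marks complete inhibition of growth.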 Where only a bound is given, the exact number is not on record here.

Test in all cases: NCI anticancer screen, dose series, 48 h
The test system of assay [1] is CAKI-1 renal.
The test system of assay [2] is UACC-257 melanoma.
Assay [3] concerns KM12 colon.
In assay [4] the test system is MOLT-4 leukemia.
Assay [5] has as its system HT29 colon.
Assay [6] has as its system DU-145 prostate.
The test system of assay [7] is HL-60(TB) leukemia.
Assay [8] deals with LOX IMVI melanoma.
The test system of assay [9] is MDA-MB-435.
Assay [10] relates to MCF7 breast.
For assay [11], the system named is NCI-H226 lung.
The subject of assay [12] is ACHN renal.
Assay [13] has as its system EKVX NSCLC.
Assay [14] has as its system OVCAR-5 ovarian.
In assay [15] the test system is COLO 205 colon.
In assay [16] the test system is SF-268 CNS.
For assay [17], the system named is PC-3 prostate.
Assay [18] concerns U251 CNS.
For assay [19], the system named is CCRF-CEM leukemia.

As for `COc1ccc(/[N+]([O-])=C/c2ccc(OC(=S)S)c(OC)c2)cc1`, the TGI in [1] was 66.7 µM; in assay [2] it was over 100 µM; in assay [3] it was 33.3 µM; in [4], over 100 µM; in [5], over 100 µM; in assay [6] it was over 100 µM. The TGI in [7] is 53.4 µM; in assay [8] it was over 100 µM; in assay [9] it was 61.1 µM; in assay [10] it was over 100 µM; in assay [11], over 100 µM; in [12] it was over 100 µM. The TGI in [13], in assay [14], in assay [15], in assay [16], in [17] and in assay [18] was over 100 µM in each case.

Regarding `O=C(OC1=CCN(Br)C1=O)C1=C(O)C(=O)N(Br)C1`, the TGI in [19] is over 100 µM; in assay [1], over 100 µM; in assay [2] it was 87.6 µM; in assay [3], over 100 µM; in assay [4], 87.7 µM; in assay [6] it was over 100 µM. Moreover, the TGI was 52.2 µM in assay [7]; 54 µM in assay [8]; over 100 µM in assay [9]; over 100 µM in [10]; over 100 µM in assay [11]; over 100 µM in assay [12]. Moreover, the TGI was 77.8 µM in [13]; 52.8 µM in assay [14]; 54.4 µM in assay [15]; 67.3 µM in assay [16]; over 100 µM in [17]; 58.1 µM in [18].

In the case of `Cc1ccc(S(=O)(=O)n2cc(C=O)c(-c3cn(S(=O)(=O)c4ccc(C)cc4)cc3-c3cn(S(=O)(=O)c4ccc(C)cc4)cc3C=O)c2)cc1`, the TGI was over 100 µM in [19]; over 100 µM in [1]; over 100 µM in assay [2]; over 100 µM in assay [3]; 93.3 µM in [4]; over 100 µM in assay [5]. For the same compound, the TGI in [6] is over 100 µM; in assay [7], over 100 µM; in assay [8], 74.4 µM; in assay [9], over 100 µM; in [10], 87.2 µM; in assay [11] it was over 100 µM. The TGI in assay [13], in [14], in [15], in assay [16], in [17] and in assay [18] was over 100 µM in each case.

As to `CCOP(=O)(OCC)Oc1c(OC)c2[nH]c(C(=O)OC)cc2c2c(C(=O)O)c[nH]c12`, the TGI was over 100 µM in assay [19]; over 100 µM in assay [1]; over 100 µM in assay [2]; 81.3 µM in assay [3]; over 100 µM in [4]; over 100 µM in [5]. For the same compound, the TGI in assay [6], in assay [7], in [8], in assay [9], in assay [10] and in assay [12] was over 100 µM throughout. The TGI in [13], in [14], in assay [15], in assay [16], in assay [17] and in assay [18] was over 100 µM throughout.

In the case of `CC(=O)Nc1nc(C)c(S(=O)(=O)NC(=O)NC2NC(=O)NC2=O)s1` (centres undefined), the TGI in assay [19], in [1], in assay [2], in assay [3], in assay [4] and in [5] was over 100 µM each time. Besides, the TGI in assay [6], in assay [7], in assay [8], in [9], in [10] and in assay [12] was over 100 µM throughout. For the same compound, the TGI in [13], in [14], in assay [15], in assay [16], in [17] and in [18] was over 100 µM each time.

As to `Fc1cc(C2=Nn3c(COc4ccccc4Cl)nnc3S/C2=C\c2ccc(Cl)cc2)c(Cl)cc1Cl`, the TGI in assay [19] is over 100 µM; in assay [1], 31.5 µM; in [2] it was over 100 µM; in assay [3], 19.6 µM; in assay [4], over 100 µM; in assay [5] it was over 100 µM. For the same compound, the TGI in [6] was 81.7 µM; in assay [7], 68.4 µM; in assay [8], 25.2 µM; in [9] it was 6.3 µM; in assay [10], 83.4 µM; in [11], over 100 µM. Also, the TGI in [12] was 39.1 µM; in assay [13], over 100 µM; in assay [14], over 100 µM; in [16], 9.06 µM; in [17], 68.9 µM; in assay [18], 80.2 µM.

Consider `C=C1C2CCC3C4(C)CCCC(C)(C(=O)O)C4CCC3(C2)C1OC(=O)/C(C)=C/C` (centres undefined), for which the TGI in assay [19] is over 100 µM; in assay [1] it was over 100 µM; in [2], over 100 µM; in assay [3], 35.1 µM; in [5], over 100 µM; in assay [6] it was over 100 µM. In addition, the TGI was 56.7 µM in [7]; over 100 µM in assay [8]; over 100 µM in assay [9]; 70.8 µM in assay [10]; over 100 µM in [11]; over 100 µM in assay [12]. Moreover, the TGI is over 100 µM in assay [13]; 79.5 µM in assay [14]; 82.1 µM in assay [15]; over 100 µM in [16]; over 100 µM in assay [17]; over 100 µM in assay [18].

Regarding `CN(C)Cc1cc(Cl)c(O)c(CN(C)C)c1`, the TGI in assay [19], in assay [1], in [2], in [3], in assay [5] and in assay [6] was over 100 µM throughout. Moreover, the TGI in assay [7], in assay [8], in [9], in assay [10], in assay [11] and in assay [12] was over 100 µM throughout. Further, the TGI in assay [13], in [14], in assay [15], in [16], in [17] and in [18] was over 100 µM in each case.
